Results taken from PubChem BioAssay (NCI).
Where “and” joins values, the source holds several entries; their conditions need not be identical. Identical values can stand only once.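 Interpolation was linear, between the two tested concentrations surrounding the appropriate level; five concentrations were tested over 48 hours in 96-well plates. GI50 = concentration required for 50% inhibition of growth. TGI: total growth inhibition.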

What was measured:
Experiment in all cases: growth of human tumour cells (NCI), 48 h
A498 renal = system: A498 renal
CCRF-CEM leukemia = system: CCRF-CEM leukemia
COLO 205 colon = system: COLO 205 colon
DU-145 prostate = system: DU-145 prostate
HS 578T breast = system: HS 578T breast
K-562 leukemia = system: K-562 leukemia
MDA-MB-231 breast = system: MDA-MB-231 breast
NCI-H23 lung = system: NCI-H23 lung
OVCAR-3 ovarian = system: OVCAR-3 ovarian
SF-295 CNS = system: SF-295 CNS
SNB-19 CNS = system: SNB-19 CNS
HOP-92 NSCLC = system: HOP-92 NSCLC

Row | Compound | TGI (A498 renal) | TGI (CCRF-CEM leukemia) [µM] | TGI (COLO 205 colon) | TGI (DU-145 prostate) [µM] | TGI (HS 578T breast) | TGI (K-562 leukemia) [µM] | TGI (MDA-MB-231 breast) | TGI (NCI-H23 lung) [µM] | TGI (OVCAR-3 ovarian) | TGI (SF-295 CNS) [µM] | TGI (SNB-19 CNS) [µM] | TGI (HOP-92 NSCLC) | GI50 (CCRF-CEM leukemia) | GI50 (COLO 205 colon) | GI50 (DU-145 prostate) | GI50 (OVCAR-3 ovarian)
1 | COC(=O)/C=C/[C@H]1[C@H](C)N1S(=O)(=O)c1ccc(C)cc1 (some centres not stated) | > 100 µM | > 100 | > 100 µM | > 100 | > 100 µM | > 100 | > 100 µM | > 100 | > 100 µM | > 100 | > 100 |  |  |  |  | 
2 | Cc1csc(CP(=O)(OC(C)C)OC(C)C)n1 | > 100 µM |  | > 100 µM | > 100 | > 100 µM | > 100 | > 100 µM | > 100 | > 100 µM | > 100 | > 100 | > 100 µM |  |  |  | 
3 | O=Cc1ccc(Oc2c3ccccc3nc3ccccc23)cc1 | 14.5 µM | 6.72 | 10.1 µM | 13.7 | 7.91 µM |  | 13.3 µM |  | 26 µM | 55.4 | 36.4 | 17.7 µM |  |  |  | 
4 | COC(=O)CCC(=O)c1ccc2c(c1)CC1(Cc3ccccc3C1)C2 | > 100 µM | 45.4 | 82.3 µM |  | > 100 µM |  | > 100 µM | > 100 | > 100 µM | > 100 |  | > 100 µM |  |  |  | 
5 | COc1ccc(-c2c(C#N)c(N)n(C3OC(COC(C)=O)C(OC(C)=O)C(OC(C)=O)C3OC(C)=O)c(=S)c2C#N)cc1 (configuration not stated) | 91.4 µM and 63.5 µM | > 100 | > 100 µM and 43.2 µM | > 100 | 83 µM and > 100 µM |  | > 100 µM and 71.2 µM | > 100 | > 100 µM and 32.3 µM | > 100 | > 100 | 82.8 µM and 49.4 µM | > 100 µM and 46.5 µM | > 100 µM and 21.2 µM | 84.2 µM and 34 µM | 44.4 µM and 15.1 µM
6 | COC(=O)Cc1c(-c2c(CC(=O)OC)c3ccccc3n2C2OC(COC3OC(COC(C)=O)C(OC(C)=O)C(OC(C)=O)C3OC(C)=O)C(O)C(O)C2O)[nH]c2ccccc12 (configuration not stated) | > 100 µM | > 100 | > 100 µM | > 100 |  | > 100 | > 100 µM | > 100 | > 100 µM | > 100 | 60 | > 100 µM |  |  |  | 
7 | CNC(=S)c1nnsc1N | > 100 µM | > 100 | > 100 µM | > 100 | > 100 µM | > 100 | > 100 µM | > 100 | > 100 µM | > 100 |  |  |  |  |  | 
8 | COC1=C2C[C@](OC)(C#CC=CC#CC2O)CC1(C)C (some centres not stated) |  | > 100 | > 100 µM | > 100 | > 100 µM | > 100 | > 100 µM | > 100 | > 100 µM | > 100 | > 100 |  |  |  |  | 
9 | COc1ccc(-c2c3c(n(C4OC(COC(C)=O)C(OC(C)=O)C(OC(C)=O)C4OC(C)=O)c(=S)c2C#N)CCCC3)cc1 (configuration not stated) | 90 µM | > 100 | > 100 µM | > 100 |  | > 100 | > 100 µM | > 100 | 92.6 µM | > 100 | > 100 |  |  |  |  | 
10 | CCOC(=O)C(C(=O)OCC)C(=S)NC1OC(COC(C)=O)C(OC(C)=O)C(OC(C)=O)C1OC(C)=O (configuration not stated) | > 100 µM | > 100 | > 100 µM | > 100 | > 100 µM |  | > 100 µM | > 100 | > 100 µM | > 100 | > 100 | > 100 µM |  |  |  | 
11 | CCOC(=O)C(/C=N/C(N)=S)=C(/O)c1ccccc1 | > 100 µM |  | > 100 µM | > 100 |  |  | > 100 µM | > 100 | > 100 µM | > 100 | > 100 | > 100 µM |  |  |  | 
12 | O=C(Nc1ccccn1)c1cc2c(cc1Cl)Sc1nccn1S2(=O)=O | > 100 µM | 95.9 | 83.5 µM |  | > 100 µM | > 100 | 53 µM | 82.6 | > 100 µM | > 100 | > 100 | > 100 µM |  |  |  | 
13 | CC(C)N=C(NC#N)NS(=O)(=O)c1cnccc1NC1CCCCCCC1 | > 100 µM | > 100 | > 100 µM | > 100 | > 100 µM | > 100 | > 100 µM | > 100 | > 100 µM | > 100 | > 100 |  |  |  |  | 
14 | COC(=O)c1cc(OCc2cc(OCc3ccc(Br)cc3)cc(OCc3ccc(Br)cc3)c2)cc(OCc2cc(OCc3ccc(Br)cc3)cc(OCc3ccc(Br)cc3)c2)c1 | > 100 µM |  | > 100 µM | > 100 |  | > 100 | > 100 µM | > 100 | > 100 µM | > 100 | > 100 | > 100 µM |  |  |  | 
15 | C[C@H](OC(=O)/C=C/c1ccc(O)c(O)c1)[C@H](C)OC(=O)/C=C/c1ccc(O)c(O)c1 | 51.7 µM |  | 50.3 µM | 39.3 | > 100 µM | > 100 | 35.9 µM | 18 | 14.8 µM | 19.8 | 25.6 | 38.2 µM |  |  |  | 
16 | C/C(=N\Nc1nc2ccccc2[nH]1)c1ccc2ccccc2n1 |  | 3.87 | 16.2 µM | 5.88 | 35 µM | 6.72 | 12.5 µM | 16.1 | 2.95 µM | 8.29 | 15.9 |  |  |  |  | 
17 | CN1CCN(C(=S)N(C(=O)c2ccc(Cl)cc2)C2CCCCC2)CC1 |  | > 100 | > 100 µM | > 100 | > 100 µM | > 100 | > 100 µM | > 100 | > 100 µM | > 100 | > 100 | > 100 µM |  |  |  | 
18 | Cc1ccc(S(=O)(=O)N/N=C2/C3CC4CCC2C4C3)cc1 (configuration not stated) | > 100 µM |  | > 100 µM | > 100 | > 100 µM |  | > 100 µM | > 100 | > 100 µM | > 100 |  | > 100 µM |  |  |  | 
19 | CC(=O)Nc1ccc2cc3c(nc2n1)c1cccnc1n3S(=O)(=O)c1ccccc1 | > 100 µM | > 100 | > 100 µM |  | > 100 µM | > 100 | > 100 µM | > 100 | > 100 µM | > 100 | > 100 | > 100 µM |  |  |  | 
20 | CCOC1=NC(C(F)(F)F)(C(F)(F)F)N=C(/N=C(/N)N(C)C(C(C)C)P(=O)(OC(C)C)OC(C)C)O1 (configuration not stated) | > 100 µM | 83.5 | > 100 µM | > 100 | > 100 µM | > 100 | > 100 µM | > 100 | > 100 µM | > 100 | > 100 |  |  |  |  | 
